Measured values as given in patent US20040121965A1, “Method of treating resistant tumors” (Wyeth Holdings Corporation, priority 2002, published 2004).
“And” between values parts separate entries of the source, which are not always exact repeats. Equal entries are not always repeated. Where two headings read alike, the source gives them in different places. Marks after values point to notes of the source that are not given here.

Columns and labels:
HCT-15 = assay: Cell survival assay (SRB), HCT-15; assay type: cell-based; details: Homo sapiens, HCT-15, 72 h, 3 days
Source text: (§1) Cells lines with previously known mechanisms of resistance. […] Res. 8: 207-218,1996); KB-3-1 (parental derived from an epidermoid carcinoma), KB-8.5, KB-V1 (Akiyama S-I, Fojo A, Hanover J A, Pastan I, Gottesman M M. Isolation and genetic characterization of human KB cell lines resistant to multiple drugs. Somatic Cell Mol. Gen., 11: 117-126,1985; Shen D-W, Cardarelli C, Hwang J, Cornwell M, Richert N, Ishii S, Pastan I, Gottesman MM. […] J. Biol. Chem., 261: 7762-7770, 1986); and HL-60 (parental derived from human leukemia) and HL60/AR (McGrath T., Center M. S. Adriamycin resistance in HL60 cells in the absence of detectable P-glycoprotein. Biochem. Res. Commun., 145:1171-1176,1987); A549 and A549.EpoB40 (He L., Yang C.-P.H., Horwitz S. B. Mutations in p-tubulin map to domains involved in regulation of microtubule stability in epothilone-resistant cell lines. Molecular Cancer Therapeutics. 1: 3-10, 2001). HCT-15 human colon carcinoma and DLD-1 human colon carcinoma are obtained from American Tissue Culture Collection. The MX-1W carcinoma is a Wyeth variant orginally obtained as MX-1 breast carcinoma from the National Cancer Institute. Cell lines selected for resistance to Representative Example 129. KB-3-1 cells are selected for resistance to Example 129 by chronically exposing cells to increasing concentrations of Example 129.
(§2) 2.2. Cell Survival Assay: Standard Pharmacological Test Procedure. The concentration of candidate inhibitor required to inhibit 50% of cell growth (IC50) is done according to previously reported methods. […] Compounds are serially diluted into media as 2× stocks and 100 μl added to cells in duplicate. Compounds are incubated with cells for 3 days. At the end of the incubation period the sulforhodamine B (SRB) assay, which measures protein content as an assessment of cell survival, is performed as described previously (Skehan P, Storeng R, Scudiero D, Monks A, McMahon J, Vistica D, Warren J T, Bokesch H, Kenney S, Boyd MR. New calorimetric cytotoxicity assay for anticancer-drug screening. J Natl Cancer Inst 1990 Jul 4;82(13):1107-12) with some modification as follows. For KB-3-1 cells with 20% FCS, media is gently decanted and replaced with 200 μl of serum-free media mixed with cold 50% TCA for a final concentration of 10% TCA. The plates are incubated for 1 hr at 4° C., followed by washing 5 times in cold distilled water, then air dried overnight. The fixed cells are stained for 10 min with 80 μl of 0.04% SRB solution prepared in 1% glacial acetic acid. Stain is discarded and plates washed 5 times in 1% glacial acetic acid, then air-dried until completely dry. Stained cell product is dissolved in 150 μl of 10 mM Trizma Base and placed on a shaker for 20 minutes until fully dissolved. Absorbance is read on a Victor V multi-label plate reader (Perkin Elmer, Gaithersburg, Md.).

SW620 = assay: Cell survival assay (SRB), SW620; assay type: cell-based; details: Homo sapiens, SW-620, 72 h
Protocol: (§3) 2.2. Cell Survival Assay: Standard Pharmacological Test Procedure. […] Compounds are incubated with cells for 3 days.

CCRF-CEM = assay: Cell survival assay (MTS), CCRF-CEM; assay type: cell-based; details: Homo sapiens, 72 h
Protocol: as §3

HL60 = assay: Cell survival assay (MTS), HL60; assay type: cell-based; details: Homo sapiens
A549 = assay: Cell survival assay (SRB), A549; assay type: cell-based; details: Homo sapiens
Source text: as §1, with “KB-3-1 cells are selected for resistance to Example 129 by chronically exposing cells to increasing concentrations of Example 129.” left out
2.2. […] Absorbance is read on a Victor V multi-label plate reader (Perkin Elmer, Gaithersburg, Md.).

PC3MM2 = assay: Cell survival assay (SRB), PC3MM2; assay type: cell-based; details: Homo sapiens
Protocol: as §3

A498 = assay: Cell survival assay (SRB), A498; assay type: cell-based; details: Homo sapiens
Protocol: as §3

A431 = assay: Cell survival assay (SRB), A431; assay type: cell-based; details: Homo sapiens, A-431, 72 h
Protocol: as §3

KB-PTX-15+099 = assay: Cell survival assay, KB-PTX-15+099 (paclitaxel-resistant, non-MDR); assay type: cell-based, human; details: for IC50: Homo sapiens
A549.EpoB40 = assay type: cell-based; details: vs A549; below 1 = sensitive
Source text: as §1
as §2, with “Stained cell product is dissolved in 150 μl of 10 mM Trizma Base and placed on a shaker for 20 minutes until fully dissolved.” left out

[1] = tested on: Human Melanoma Carcinoma Lox; details: for inhibition of growth of Lox melanoma xenografts: day 14, P<0.01; for % T/C on day 7 / % T/C on day 12: Lox, days 1,5,9; for Activity in nude mice animal model (% T/C @ MTD on days 11-15) LOX: staged LOX xenograft, at MTD ('<': MTD not achieved)
[2] = tested on: human carcinoma xenografts; assay: Growth of tumors in nude mice, several xenograft models and tolerated dose; assay type: in vivo
Source text: 2.4. Growth of Tumors in Nude Mice.

KB-8-5 (MDR1+) = assay: Cell survival assay (SRB), KB-8-5 (MDR1+); details: for IC50: Homo sapiens
[3] = LOX xenograft model, IV days 1, 5 and 9

## CN[C@H](C(=O)N[C@H](C(=O)N(C)[C@H](/C=C(\C)C(=O)O)C(C)C)C(C)(C)C)C(C)(C)c1ccccc1 [Example 129, N,β,β-trimethyl-L-phenylalanyl-N^1-[(1S,2E)-3-carboxy-1-isopropylbut-2-enyl]-N^1,3-dimethyl-L-valinamide]
HCT-15; HCT-15, colon, SRB staining
  IC50: 4.2 ± 2.5 nM
HCT-15; HCT-15, SRB, vehicle control (DMSO), no MDR-1 inhibitor
  IC50: 2.2 nM
HCT-15; read-out: IC50 + 5.0 uM MDR-1 inhibitor, HCT-15, SRB, + 5.0 uM MDR-1 inhibitor (heptanenitrile of Table 2)
  IC50: 0.5 nM
SW620
  IC50: 3.6 ± 0.8 nM
CCRF-CEM
  IC50: 0.2 ± 0.03 nM
HL60; HL-60, 72 h
  IC50: 0.21 ± 0.05 nM
HL60; HL-60, read-out: HL60 IC50, nM (N)
  IC50: 0.212 ± 0.048 nM
A549; A549, 72 h
  IC50: 1.1 ± 0.5 nM
PC3MM2; PC3MM2, 72 h
  IC50: 1.9 ± 0.1 nM
A498; A498, 72 h
  IC50: 0.8 nM
A431
  IC50: 2.4 ± 0.4 nM
KB-PTX-15+099; read-out: KB-PTX-15+099 IC50 (nM)
  IC50: 0.182 ± 0.028 nM
KB-PTX-15+099; IC50 KB-PTX-15+099 / IC50 KB-3-1, less than 1 = increased sensitivity
  Average Relative Resistance (RR): (0.30)
KB-PTX-15+099; vs KB-3-1
  increased sensitivity of KB-PTX-15+099 cells: 3.4 fold
A549.EpoB40
  resistance of A549.EpoB40 cells: 0.6 fold
[1]; 2 mg/kg oral gavage days 1,5,9
  inhibition of growth of Lox melanoma xenografts: 63%
[1]; 3 mg/kg oral gavage days 1,5,9
  inhibition of growth of Lox melanoma xenografts: 97%
[1]; 2 and 3 mg/kg oral gavage days 1,5,9
  weight loss: less than 10%
[1]; IV in saline, days 1, 5, 9 post-staging, 0.5-1 mg/kg, tumors 1-2 gram
  growth inhibition of melanoma Lox tumors: > 95%
[1]; [3]
  maximum effective dose: ~1.6 mg/kg
  minimum effective dose: approximately 200 μg/kg
[1]; Example 129 1.6 mg/kg IV
  % T/C on day 7: 12** %
  % T/C on day 12: 2** %
[1]
  Activity in nude mice animal model (% T/C @ MTD on days 11-15) LOX: 2.5%
[2]; tumors derived from DLD-1, MX-1W or HCT-15
  inhibition of tumor growth: 60-95%
KB-8-5 (MDR1+)
  RR, relative resistance: 2.4
  Ratio KB85/KB: 2.4
  resistance of KB-8-5 cells: 2.4-5 fold
KB-8-5 (MDR1+); MDR1, 72 h
  IC50: 1.9 nM
KB-8-5 (MDR1+); MDR1, 72 h, read-out: IC50 + 5.0 uM MDR-1 inhibitor
  IC50: 1.4 nM
KB-8-5 (MDR1+); MDR1, read-out: KB-8-5 (MDR1+) IC50, nM (N)
  IC50: 2.3 nM

## CC(=O)O[C@H]1C(=O)[C@@]2(C)[C@H]([C@H](OC(=O)c3ccccc3)[C@]3(O)C[C@H](OC(=O)[C@H](O)[C@@H](NC(=O)c4ccccc4)c4ccccc4)C(C)=C1C3(C)C)[C@]1(OC(C)=O)CO[C@@H]1C[C@@H]2O [paclitaxel, reference compound]
HCT-15; HCT-15, colon, SRB staining, read-out: IC50
  IC50: 438 ± 248 nM
HCT-15; HCT-15, SRB, + 5.0 uM MDR-1 inhibitor (heptanenitrile of Table 2), read-out: IC50 + 5.0 uM MDR-1 inhibitor
  IC50: 5 nM
HCT-15; HCT-15, SRB, vehicle control (DMSO), no MDR-1 inhibitor, read-out: IC50
  IC50: 479 nM
SW620; SW620, colon, 3 days, SRB staining, read-out: IC50
  IC50: 18 nM
CCRF-CEM; leukemia, 3 days, MTS assay, read-out: IC50
  IC50: 3.3 ± 1.3 nM
HL60; HL-60, 72 h, HL60, leukemia, 3 days, MTS assay, read-out: IC50
  IC50: 1.8 nM
HL60; HL-60, HL60 parental, Table 5, read-out: HL60 IC50, nM (N)
  IC50: 1.8 nM
A549; 72 h, A549, NSCLC, 3 days, SRB staining, read-out: IC50
  IC50: 8.8 ± 3.6 nM
PC3MM2; 72 h, PC3MM2, prostate, 3 days, SRB staining, read-out: IC50
  IC50: 8.7 nM
A498; 72 h, A498, renal, 3 days, SRB staining, read-out: IC50
  IC50: 27.5 nM
A431; A431, squamous, 3 days, SRB staining, read-out: IC50
  IC50: 7.6 nM
KB-PTX-15+099; KB-PTX-15+099, Table 6, read-out: KB-PTX-15+099 IC50
  IC50: 57.8 ± 9.6 nM
KB-PTX-15+099; vs KB-3-1
  resistance of KB-PTX-15+099 cells: 21 fold
A549.EpoB40
  resistance of A549.EpoB40 cells: 13 fold
[1]; paclitaxel 60 mg/kg IV
  % T/C on day 7: 16** %
  % T/C on day 12: 4** %
[1]
  Activity in nude mice animal model (% T/C @ MTD on days 11-15) LOX: 4%
[2]; DLD-1, MX-1W or HCT-15 tumors, at or near the MTD
  response of tumors: no response
KB-8-5 (MDR1+); MDR1, 72 h, KB-85, 3 days, SRB, vehicle (DMSO), no MDR-1 inhibitor, mean of two experiments
  IC50: 41.9 nM
KB-8-5 (MDR1+); MDR1, 72 h, read-out: IC50 + 5.0 uM MDR-1 inhibitor, KB-85, 3 days, SRB, + 5.0 uM MDR-1 inhibitor (heptanenitrile), mean of two experiments
  IC50: 4.4 nM
KB-8-5 (MDR1+); MDR1, read-out: KB-8-5 (MDR1+) IC50, nM (N), KB-8-5, moderate MDR1 expression, Table 3
  IC50: 63.3 ± 29 nM
KB-8-5 (MDR1+); KB-8-5 (KB-85) vs KB-3-1, in vitro
  resistance of KB-8-5 cells: 19 fold and 14 fold
